Experiments:
[1] = target: T1, HDAC1 (Homo sapiens, UniProt Q13547); test: HDACs enzymatic assay HDAC1; type: biochemical
T1 construct: purchased BPS BIOSCIENCE INC 50051
Description: (§1) HDACs enzymatic assays were conducted according to our previous work. […] Substrates (Boc‐Lys(acetyl)‐AMC for HeLa nuclear extract, Ac‐Leu‐Gly‐Lys (Tfa)‐AMC for HDAC4, HDAC5, HDAC6, HDAC7, HDAC9, HDAC10, and HDAC11, Boc‐Lys(triflouroacetyl)‐AMC for HDAC8 and Ac‐Leu‐Gly‐Lys(acetyl)‐AMC for HDAC1, HDAC2, HDAC3) were added to the mixture. The blank group was set to no enzyme or drug but contains substrates and the control group was set to no drug but contains substrates and enzymes to each 96‐well plate. After 30 min of incubation at 37°C, the mixture was terminated with 1 mg/mL trypsin and 3 µM TSA. After another 30 min, the fluorescence intensity was measured using a Varioskan plate reader at 360/460 nm. […] The inhibition curves and IC50 values were simulated and calculated using the log(inhibitor) versus response (three parameters) mode in GraphPad Prism software.

[2] = target: T2, HDAC2 (Homo sapiens, UniProt Q92769); test: HDACs enzymatic assay HDAC2; type: biochemical; conditions: Class I; mean ± SD of three
T2 construct: purchased BPS BIOSCIENCE Inc 50052
Description: as §1

[3] = target: HDAC3/NCOR1 complex (Homo sapiens, UniProt O15379); test: HDACs enzymatic assay HDAC3; type: biochemical; conditions: Class I; mean ± SD of three
Description: as §1

[4] = target: T3, HDAC4 (Homo sapiens, UniProt P56524); test: HDACs enzymatic assay HDAC4; type: biochemical; conditions: Class IIa
T3 construct: purchased BPS BIOSCIENCE Inc 50004
Description: as §1

[5] = target: T4, HDAC5 (Homo sapiens, UniProt Q9UQL6); test: HDACs enzymatic assay HDAC5; type: biochemical; conditions: Class IIa
T4 construct: purchased BPS BIOSCIENCE Inc 50005
Description: as §1

[6] = target: T5, HDAC7 (Homo sapiens, UniProt Q8WUI4); test: HDACs enzymatic assay HDAC7; type: biochemical; conditions: Class IIa
T5 construct: purchased BPS BIOSCIENCE Inc 50007
Description: as §1

[7] = target: T6, HDAC6 (Homo sapiens, UniProt Q9UBN7); test: HDACs enzymatic assay HDAC6; type: biochemical; conditions: Class IIb
T6 construct: purchased BPS BIOSCIENCE Inc 50006
Description: as §1

[8] = system: AGS; test: CCK-8 antiproliferation assay; type: cell-based; conditions: Homo sapiens, 48 h treatment
Description: (§2) Cell lines purchased from the Cell Bank of Type Culture Collection of the Chinese Academy of Sciences (Shanghai, China) were passaged after resuscitation. […] The third to tenth passages of cells were used for experiments. […] After incubation, 20 µL CCK‐8 solution (MeilunBio) was added. Two hours later, absorption was measured by a Varioskan plate at 450 nm. Inhibition curves and IC50 values were simulated and calculated using the log(inhibitor) versus response (three parameters) mode via GraphPad Prism software.

[9] = system: HL-60; test: CCK-8 antiproliferation assay; type: cell-based; conditions: Homo sapiens, 48 h treatment
Description: as §2

[10] = system: Jurkat; test: CCK-8 antiproliferation assay; type: cell-based; conditions: Homo sapiens, 48 h treatment
Description: as §2

[11] = system: KM3; test: CCK-8 antiproliferation assay; type: cell-based; conditions: Homo sapiens, 48 h treatment
Description: as §2

[12] = system: MCF-7; test: CCK-8 antiproliferation assay; type: cell-based; conditions: Homo sapiens, MCF7, 48 h treatment
Description: as §2

[13] = system: NCI-H929; test: CCK-8 antiproliferation assay; type: cell-based; conditions: Homo sapiens, 48 h treatment
Description: as §2

[14] = system: PC-3; test: CCK-8 antiproliferation assay; type: cell-based; conditions: Homo sapiens, 48 h treatment
Description: as §2

[15] = system: RPMI-8226; test: CCK-8 antiproliferation assay; type: cell-based; conditions: Homo sapiens, 48 h treatment
Description: as §2

[16] = In vitro metabolic assay, mouse liver microsomes; type: in vitro ADME
Description: Compounds were prepared in a working solution of 2 mg/mL with methanol. […]; Research Institute for Liver Disease (Shanghai) Co., Ltd) were mixed with NADPH (the final concentration is 4 mM), MgCl2 (the final concentration is 6 mM), and shaken at 37°C for 5 min. Then, compound solutions were added to the system and incubated for 0, 10, 20, 30, 60, 90, and 120 min at 37°C under shaking conditions. The mixture was quenched with cold acetonitrile and analyzed with a Shimadzu LC‐20AT system and a C18‐silica column (Thermo; 4.6 × 250 mm, 5 µm).

[17] = system: MDA-MB-231 cells; test: Western blotting (immunoblotting); type: cell-based, human; conditions: 24 h
From the text: Anti‐H3 (#13998), anticleaved Caspase‐3 (#9661) and anti‐PARP (#9542) antibody was purchased from Cell Signal Technology (CST). Anti‐Caspase‐3 (T40044) was brought from Abmart. Antitubulin antibody (ab179484) was obtained from Abcam PLC. Anti‐Bcl‐2 (F0125) and anti‐Bax (F0037) antibody were purchased from Selleck Chemicals. Anti‐GAPDH antibody (AF1186) was obtained from Beyotime Inc. The protocol of Western blotting was the same as our previous works. In brief, 2.5 × 10^5 MDA‐MB‐231 cells were treated with different drugs or DMSO (equal volume to experimental groups) for 24 h and lysed with modified RIPA buffer. The cell lysates were added to loading buffer (Beyotime #P0015L) and heated in boiling water for 5 mins and then, together with biomarker (Epizymebiotech; 15–250 kDa), were electrophoresed in SDS‐PAGE gels under 80 V voltage until the biomarker reached the end of gels. Next, SDS‐PAGE gels and PVDF membrane were clipped together to perform transmembrane procedure under 350 mA currency for 1 h. Then after incubation with 5% skim milk, TBST, primary antibody and secondary antibody, the PVDF membrane was treated with ECL chemiluminescence solution (Boster Biological Technology #AR1174) and imaged by the imager (Imager 680 Amersham Imager).

[18] = system: MDA-MB-231 cells; test: TUNEL assay; type: cell-based, human; conditions: MDA-MB-231, 5 µM, 24 h
Description: The TUNEL assay was performed with the one‐step TUNEL apoptosis kit (MeilunBio) according to the manual from the manufacturer. Briefly, cells (5 × 10^5 cells per plate) were seeded in confocal dishes and incubated with drugs for 24 h. The medium was removed, and cells were fixed with 4% polyoxymethylene solution for 30 min. Subsequently, cells were treated with 20 µg/mL protease K for 5 min and TUNEL working solution for 1 h at 37°C. Eventually, cells were captured with a Leica TCS SP8 super‐resolution laser scanning confocal microscope.

T1 sequence (Q13547 whole entry): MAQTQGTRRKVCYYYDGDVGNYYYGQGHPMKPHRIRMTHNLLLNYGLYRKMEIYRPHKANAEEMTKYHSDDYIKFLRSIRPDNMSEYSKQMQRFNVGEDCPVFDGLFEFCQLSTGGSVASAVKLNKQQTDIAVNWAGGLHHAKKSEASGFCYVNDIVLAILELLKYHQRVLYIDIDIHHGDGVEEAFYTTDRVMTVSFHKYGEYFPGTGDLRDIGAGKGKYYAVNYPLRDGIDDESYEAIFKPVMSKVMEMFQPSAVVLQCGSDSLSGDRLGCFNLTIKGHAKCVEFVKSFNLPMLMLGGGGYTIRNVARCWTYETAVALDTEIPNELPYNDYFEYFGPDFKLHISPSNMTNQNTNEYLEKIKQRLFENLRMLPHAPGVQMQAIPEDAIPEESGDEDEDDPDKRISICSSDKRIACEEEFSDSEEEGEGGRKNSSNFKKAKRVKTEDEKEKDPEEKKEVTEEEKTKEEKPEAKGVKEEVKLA
T6 sequence (Q9UBN7 whole entry): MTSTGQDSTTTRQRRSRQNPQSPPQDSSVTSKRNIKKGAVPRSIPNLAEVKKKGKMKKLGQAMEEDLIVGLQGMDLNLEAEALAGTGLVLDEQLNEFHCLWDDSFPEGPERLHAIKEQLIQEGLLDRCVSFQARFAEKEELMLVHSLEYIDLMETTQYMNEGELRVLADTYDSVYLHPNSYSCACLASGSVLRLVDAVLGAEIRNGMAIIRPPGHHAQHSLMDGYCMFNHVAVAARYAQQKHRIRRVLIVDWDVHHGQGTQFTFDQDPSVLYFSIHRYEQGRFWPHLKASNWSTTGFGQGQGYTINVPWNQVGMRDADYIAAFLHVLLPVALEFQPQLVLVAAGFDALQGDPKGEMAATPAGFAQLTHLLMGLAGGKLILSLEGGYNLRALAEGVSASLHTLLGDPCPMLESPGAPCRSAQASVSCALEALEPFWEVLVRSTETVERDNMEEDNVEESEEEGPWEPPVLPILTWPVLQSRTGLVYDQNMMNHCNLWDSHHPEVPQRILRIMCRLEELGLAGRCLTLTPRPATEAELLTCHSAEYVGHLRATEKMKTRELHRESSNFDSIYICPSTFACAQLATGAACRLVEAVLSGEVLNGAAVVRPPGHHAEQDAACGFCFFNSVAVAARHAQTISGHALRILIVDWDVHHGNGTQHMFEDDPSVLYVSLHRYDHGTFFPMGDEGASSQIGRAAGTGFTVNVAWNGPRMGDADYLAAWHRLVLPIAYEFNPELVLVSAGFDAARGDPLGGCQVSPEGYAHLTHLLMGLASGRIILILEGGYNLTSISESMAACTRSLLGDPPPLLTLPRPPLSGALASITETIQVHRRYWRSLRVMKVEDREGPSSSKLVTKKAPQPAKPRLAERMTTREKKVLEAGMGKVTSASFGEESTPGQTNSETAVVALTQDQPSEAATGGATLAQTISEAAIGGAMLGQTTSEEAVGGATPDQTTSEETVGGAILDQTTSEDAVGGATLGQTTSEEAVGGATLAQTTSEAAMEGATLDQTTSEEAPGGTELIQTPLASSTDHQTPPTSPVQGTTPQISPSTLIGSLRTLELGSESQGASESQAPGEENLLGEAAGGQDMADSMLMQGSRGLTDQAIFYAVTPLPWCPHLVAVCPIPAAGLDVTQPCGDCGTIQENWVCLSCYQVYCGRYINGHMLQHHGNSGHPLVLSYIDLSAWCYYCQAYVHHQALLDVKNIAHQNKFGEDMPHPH
T5 sequence (Q8WUI4 whole entry): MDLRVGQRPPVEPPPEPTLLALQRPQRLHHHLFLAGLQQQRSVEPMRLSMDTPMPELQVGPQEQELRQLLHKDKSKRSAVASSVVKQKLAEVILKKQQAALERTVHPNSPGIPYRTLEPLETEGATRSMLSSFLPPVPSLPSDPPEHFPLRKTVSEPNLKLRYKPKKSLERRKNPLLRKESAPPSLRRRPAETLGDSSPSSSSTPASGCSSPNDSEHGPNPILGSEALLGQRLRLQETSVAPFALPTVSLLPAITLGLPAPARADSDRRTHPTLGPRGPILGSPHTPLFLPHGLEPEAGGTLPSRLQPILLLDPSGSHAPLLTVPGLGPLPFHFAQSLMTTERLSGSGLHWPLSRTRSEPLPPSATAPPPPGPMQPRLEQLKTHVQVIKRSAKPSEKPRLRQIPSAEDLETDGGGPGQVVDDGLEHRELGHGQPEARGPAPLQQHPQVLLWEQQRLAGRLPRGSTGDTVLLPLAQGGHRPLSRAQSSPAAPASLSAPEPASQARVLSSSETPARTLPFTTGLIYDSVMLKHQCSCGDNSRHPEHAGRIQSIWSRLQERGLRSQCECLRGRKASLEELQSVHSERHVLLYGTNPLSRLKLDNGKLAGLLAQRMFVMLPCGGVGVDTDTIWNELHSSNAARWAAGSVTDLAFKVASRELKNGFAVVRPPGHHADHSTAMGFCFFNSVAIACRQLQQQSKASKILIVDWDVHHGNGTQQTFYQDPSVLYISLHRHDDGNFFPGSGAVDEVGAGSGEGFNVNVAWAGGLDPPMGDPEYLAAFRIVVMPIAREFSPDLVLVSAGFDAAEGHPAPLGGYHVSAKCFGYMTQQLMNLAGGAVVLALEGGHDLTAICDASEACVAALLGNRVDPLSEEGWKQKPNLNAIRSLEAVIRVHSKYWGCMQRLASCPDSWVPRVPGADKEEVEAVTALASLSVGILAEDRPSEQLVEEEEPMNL
Chain of HDAC3/NCOR1 complex (O15379 whole entry): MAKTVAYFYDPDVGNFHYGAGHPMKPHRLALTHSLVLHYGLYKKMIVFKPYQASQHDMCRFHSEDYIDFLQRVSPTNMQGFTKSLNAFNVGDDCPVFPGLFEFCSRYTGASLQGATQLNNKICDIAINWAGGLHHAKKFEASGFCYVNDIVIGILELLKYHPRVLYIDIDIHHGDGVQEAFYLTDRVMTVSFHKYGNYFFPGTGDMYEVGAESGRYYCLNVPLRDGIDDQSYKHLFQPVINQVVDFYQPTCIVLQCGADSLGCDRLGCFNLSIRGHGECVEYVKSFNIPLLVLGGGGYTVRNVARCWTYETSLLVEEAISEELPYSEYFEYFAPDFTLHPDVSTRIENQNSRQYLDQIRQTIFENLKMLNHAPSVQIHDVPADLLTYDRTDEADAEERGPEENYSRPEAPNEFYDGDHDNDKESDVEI
Chain of HDAC3/NCOR1 complex (Q9Y618 395-489 partner): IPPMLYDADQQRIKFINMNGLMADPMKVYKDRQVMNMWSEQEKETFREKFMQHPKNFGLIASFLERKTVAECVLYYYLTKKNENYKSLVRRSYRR
T2 sequence (Q92769 whole entry): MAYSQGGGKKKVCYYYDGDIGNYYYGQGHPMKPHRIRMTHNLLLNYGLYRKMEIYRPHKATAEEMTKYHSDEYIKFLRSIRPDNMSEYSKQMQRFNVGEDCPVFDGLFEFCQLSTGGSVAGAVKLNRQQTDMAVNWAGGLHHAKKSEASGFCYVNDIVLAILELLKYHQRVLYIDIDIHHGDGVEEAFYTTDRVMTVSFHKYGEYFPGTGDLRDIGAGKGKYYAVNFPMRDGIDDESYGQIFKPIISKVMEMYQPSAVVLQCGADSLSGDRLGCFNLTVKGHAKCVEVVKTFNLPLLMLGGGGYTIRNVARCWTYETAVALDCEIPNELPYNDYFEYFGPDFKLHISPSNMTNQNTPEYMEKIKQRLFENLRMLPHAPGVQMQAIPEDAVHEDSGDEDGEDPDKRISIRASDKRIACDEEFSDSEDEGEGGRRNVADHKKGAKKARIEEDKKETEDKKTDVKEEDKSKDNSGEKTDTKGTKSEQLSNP
T4 sequence (Q9UQL6 whole entry): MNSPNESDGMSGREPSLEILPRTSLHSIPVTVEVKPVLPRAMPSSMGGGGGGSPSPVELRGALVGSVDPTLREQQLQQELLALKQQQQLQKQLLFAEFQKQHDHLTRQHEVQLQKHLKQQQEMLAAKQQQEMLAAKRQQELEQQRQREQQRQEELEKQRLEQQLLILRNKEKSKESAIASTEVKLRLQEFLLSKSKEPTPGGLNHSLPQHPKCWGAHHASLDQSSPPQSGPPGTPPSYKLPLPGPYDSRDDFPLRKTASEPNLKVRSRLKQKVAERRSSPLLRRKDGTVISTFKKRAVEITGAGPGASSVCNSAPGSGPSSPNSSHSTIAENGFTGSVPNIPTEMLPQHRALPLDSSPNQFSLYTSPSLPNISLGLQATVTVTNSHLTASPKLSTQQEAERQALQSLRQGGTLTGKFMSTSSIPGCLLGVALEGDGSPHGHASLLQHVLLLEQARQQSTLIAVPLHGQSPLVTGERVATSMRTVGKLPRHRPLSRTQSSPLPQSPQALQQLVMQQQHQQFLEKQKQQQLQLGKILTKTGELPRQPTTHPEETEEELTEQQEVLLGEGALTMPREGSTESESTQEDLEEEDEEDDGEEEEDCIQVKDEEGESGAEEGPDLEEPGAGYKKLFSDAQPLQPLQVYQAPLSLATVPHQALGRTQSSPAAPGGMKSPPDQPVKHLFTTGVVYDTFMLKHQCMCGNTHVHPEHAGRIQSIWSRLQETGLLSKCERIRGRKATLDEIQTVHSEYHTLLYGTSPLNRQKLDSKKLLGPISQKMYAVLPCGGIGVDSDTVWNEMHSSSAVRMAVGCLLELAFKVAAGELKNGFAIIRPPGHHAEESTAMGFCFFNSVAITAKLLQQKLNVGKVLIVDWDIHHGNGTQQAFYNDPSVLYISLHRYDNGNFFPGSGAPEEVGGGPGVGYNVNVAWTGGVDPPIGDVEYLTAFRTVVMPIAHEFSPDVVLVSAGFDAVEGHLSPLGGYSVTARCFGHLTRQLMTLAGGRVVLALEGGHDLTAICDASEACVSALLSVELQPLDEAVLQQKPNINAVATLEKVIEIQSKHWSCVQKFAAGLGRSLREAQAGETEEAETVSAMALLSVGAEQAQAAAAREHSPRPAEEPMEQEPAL

O=C(CCCCCCNC(=O)c1cc(OCCc2ccccc2)c2ccccc2n1)NO [SDFZ-8]
IC50 ([1]; Class I, mean ± SD of three): 0.4 ± 0.1 nM | HDAC1 potency superior to SAHA ([1]; versus SAHA): 92 fold | IC50 [2]: 5.8 ± 1.5 nM | IC50 [3]: 300 ± 100 nM | IC50 [4]: > 10000 nM | IC50 [5]: > 10000 nM | IC50 [6]: > 10000 nM | IC50 [7]: 3.1 ± 0.5 nM | IC50 [8]: 560 ± 20 nM | IC50 [9]: 94 ± 4 nM | IC50 [10]: 89 ± 1 nM | IC50 [11]: 100 ± 5 nM | IC50 [12]: 1960 ± 60 nM | IC50 [13]: 100 ± 5 nM | IC50 [14]: 620 ± 70 nM | IC50 [15]: 460 ± 30 nM | half-life ([16]; mouse liver microsomes, read-out: half-life T 1/2 in mouse liver microsomes): 12.3 min | microsomal CLint ([16]; mouse, microsomes): 56.3 µL/min/mg | antiapoptotic protein Bcl-2 expression [17]: downregulating | levels of cleaved caspase-3 and cleaved PARP [17]: increase | proapoptotic protein Bax expression [17]: upregulated | level of acetylated histone H3 (Ac-H3) ([17]; western blotting): upregulation | level of acetylated tubulin (Ac-tubulin) ([17]; western blotting): upregulation | TUNEL green fluorescence (apoptosis) [18]: higher intensity of green fluorescence compared with SAHA
